Measured values: US9969761B2, “Stabilisation of radiopharmaceutical precursors” (GE HEALTHCARE LIMITED, priority 2004, dated 2018)
Several values for one entry are separate records, joined by “and”; a condition that tells them apart may be missing. Equal entries are not always repeated.

Legend:
[1] = Appearance/organoleptic test after storage; format: physicochemical; details: dry powder; 2 weeks storage at 50° C.
Procedure: (§1) Filled and capped units are kept in storage at 25° C. and 50° C. in thermally controlled cabinets for set periods of time at which “pull points” a vial was removed from storage and subjected to the testing outlined below.
(§2) Non-radioactive methods (cold) performed: • Appearance/organoleptic test, all pull points • Purity by HPLC-UV, all pull points • ^19F-NMR, all pull points • Water content analysis, at time zero.

[2] = Comparative example: radiolabelling of stored dry powder mannose triflate, RCP by ITLC; format: physicochemical; details: for % RCP: dry powder
Procedure: Dry powder mannose triflate was stored in vials at different temperatures and for different time periods.
A solution of potassium carbonate (41 mg of potassium carbonate in 40 μl water) was added to a glassy carbon reactor and then a solution of kryptofix 222 (19.4 mg in 320 μl) was added separately. Then a solution of 18-fluoride in water (0.05 ml) was added and the solution dried by heating to 80° C. for 4 mins with a flow of dry nitrogen (at 0.3 liters/min). A solution of 1,3,4,6-tetra-O-acetyl-2-O-trifluoromethanesulfonyl-β-D-mannopyranose (20 mg in 1.6 ml dry acetonitrile) was then added and the reaction heated for a further 4 minutes at 80° C. The reaction was then cooled to 50° C. and a sample removed for analysis by ITLC (Instant thin layer chromatography) on TLC aluminium sheets silica gel 60 F254 eluting with 95% acetonitrile, 5% water. The radiochemical purity was calculated from the ratio of 1,3,4,6-tetra-O-acetyl-2-fluoro-β-D-mannopyranose to the total of the sugar and free fluoride (the sole two components from the reaction).

IR of stored dry powder = format: physicochemical; details: 2 weeks storage at 50° C.
[3] = Purity by HPLC-UV after storage; format: physicochemical; details: dry powder; 2 weeks storage at 50° C.
Procedure: as §1, §2
HPLC Method: octadecylsilyl silica gel (5 μm) column (Hichrom Nucleosil 100-5C18), temperature 25° C.; injection volume 20 μl; mobile phase of water: acetonitrile gradient, 1 ml/min. Detection by spectrophotometer at 220 nm.
HPLC-UV traces for the solid mannose triflate control experiment and the acetonitrile solution of mannose triflate are shown in FIGS. 1 and 2 respectively. Mannose triflate elutes at 32.5 minutes.

[4] = dry powder at 5° C.; cited from earlier work
[5] = Radiolabelling with 18F- in a glassy carbon reactor after storage (pFDG RCP), Examples 1 and 2; format: physicochemical; details: storage time 0 weeks, MT 20 mg in 1.6 ml acetonitrile
Procedure: as §1
Radioactive methods (hot) performed: Radiolabelling with ^18F^− in a glassy carbon reactor (all pull points). Each dry sample of mannose triflate (20 mg) is dissolved in dry acetonitrile (1.6 ml). For the mannose triflate stored in acetonitrile, an aliquot (3.3 ml) was removed and diluted to 4.0 ml with acetonitrile and 1.6 ml of this solution was used in the radiolabelling test. For the samples taken after 2 weeks storage at 50° C., a 1.6 ml sample of the mannose triflate solution was used directly without further dilution. In all cases, the radiolabelling was performed after drying an ^18F solution of Kryptofix 2.2.2 (19.4 mg), potassium carbonate (41.0 mg), acetonitrile (0.32 ml) and water (0.04 ml) for 4 minutes at 80° C. before adding the test solution of mannose triflate in acetonitrile. The labelling reaction was carried out at 80° C. for 4 minutes in a glassy carbon reactor. […]
Using similar method to Example 1, the stability of mannose triflate in acetonitrile with water at level of approximately 725, 1450, and 2500 ppm was evaluated. […]

With `CC(=O)OC[C@H]1O[C@@H](OC(C)=O)[C@@H](OS(=O)(=O)C(F)(F)F)[C@@H](OC(C)=O)[C@@H]1OC(C)=O` [mannose triflate, 1,3,4,6-tetra-O-acetyl-2-O-trifluoromethanesulfonyl-β-D-mannopyranose] the Appearance/organoleptic [1] was “black and smelled strongly of acetic acid”, the “% RCP” value ([2]; 0 days under air, listed as Dry powder mannose triflate) was 87% and 86% and the “% RCP” value ([2]; 1 day @ room temperature under dry N2, listed as Dry powder mannose triflate) was 82% and 93%. The “% RCP” value ([2]; 5 days @ 50° C. under air) was 5%, the “% RCP” value ([2]; 127 days @ 25° C. under air) was 1% and the “stability of dry powder (conclusion from RCP data)” value ([2]; room temperature, much worse at 50° C.) was “significant instability”. For the same molecule, the IR identity (IR of stored dry powder) was “no longer mannose triflate”, the “HPLC-UV detection of mannose triflate” value [3] was “no mannose triflate was detected” and the shelf life [4] was 6 months. For the same molecule, the “pFDG RCP %” value ([5]; listed as Control (N2)) was 82% and 93% and the “pFDG RCP %” value ([5]; listed as Control (air)) was 87% and 86%.
